The target in the assay is T1, GLP-1 Receptor (Homo sapiens, UniProt P43220).
T1 construct: host or cells: HEK293/CRE-Luc
Put plainly: GLP-1R agonist cAMP stimulation assay. It is filed as cell-based. To be noted: HEK293/CRE-Luc cell line stably expressing the GLP-1 Receptor; 30 min at 37° C.; cAMP dynamic 2 Kit. In short, it runs like this: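 HEK293 cells stably expressing GLP-1R with CRE-luciferase, 1000 cells/well in DPBS with 0.5 mM IBMX and 0.1% BSA, exposed to compound (½-log dilutions) for 30 min at 37 °C. cAMP measured by HTRF (665/615 nm) after 1 h at room temperature; % activity scaled between vehicle and maximal control.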

This note sets out measurements from patent US20250145596A1, “HETEROCYCLIC GLP-1 AGONISTS” (Gasherbrum Bio, Inc., priority 2022, published 2025).

T1 sequence (P43220 24-463): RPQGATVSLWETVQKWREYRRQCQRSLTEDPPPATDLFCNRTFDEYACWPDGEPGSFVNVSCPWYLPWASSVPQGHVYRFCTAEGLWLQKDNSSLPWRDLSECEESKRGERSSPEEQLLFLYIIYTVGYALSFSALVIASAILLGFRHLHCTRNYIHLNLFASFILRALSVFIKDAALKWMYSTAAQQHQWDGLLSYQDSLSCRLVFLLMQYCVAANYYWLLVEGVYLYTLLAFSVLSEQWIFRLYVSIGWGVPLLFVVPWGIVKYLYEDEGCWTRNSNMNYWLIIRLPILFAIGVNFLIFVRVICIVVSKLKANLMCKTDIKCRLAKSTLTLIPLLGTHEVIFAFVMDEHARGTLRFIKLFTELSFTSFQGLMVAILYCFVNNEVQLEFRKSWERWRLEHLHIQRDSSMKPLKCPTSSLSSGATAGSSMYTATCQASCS

Usually EC50 stands for the concentration giving half of the maximal effect. Low readings indicate higher potency in that assay, high ones lower potency in that assay. `N#CC1(Cc2cc(-c3nnc(C(F)(F)F)[nH]3)cnc2CN2CCC(c3ccc(F)c(OCc4ccc(Cl)c5ccoc45)n3)CC2)CC1` [Example 63, 1-((2-((4-(6-((4-chlorobenzofuran-7-yl)methoxy)-5-fluoropyridin-2-yl)piperidin-1-yl)methyl)-5-(5-(trifluoromethyl)-4H-1,2,4-triazol-3-yl)pyridin-3-yl)methyl)cyclopropane-1-carbonitrile] registered a concentration for a half-maximal effect (EC50) below 1 nM.

`N#CC1(Cc2cc(-c3nnc(C(F)(F)F)[nH]3)cnc2CN2CCC(c3cccc(OCc4ccc(Cl)c5ccoc45)n3)CC2)CC1` [Example 64, 1-((2-((4-(6-((4-chlorobenzofuran-7-yl)methoxy)pyridin-2-yl)piperidin-1-yl)methyl)-5-(5-(trifluoromethyl)-4H-1,2,4-triazol-3-yl)pyridin-3-yl)methyl)cyclopropane-1-carbonitrile] showed a half-maximal effective concentration (EC50) below 1 nM.

`Cc1ccc(C2(C)Oc3cccc(C4=CCN(Cc5ncc(-c6nnc(C(F)(F)F)[nH]6)cc5CC5(C#N)CC5)CC4)c3O2)c(Cl)c1` (centres unmarked) [Example 65, 1-((2-((4-(2-(2-chloro-4-methylphenyl)-2-methylbenzo[d][1,3]dioxol-4-yl)-3,6-dihydropyridin-1(2H)-yl)methyl)-5-(5-(trifluoromethyl)-4H-1,2,4-triazol-3-yl)pyridin-3-yl)methyl)cyclopropane-1-carbonitrile] came in with a 50% effective concentration (EC50) below 1 nM.

On to `CC1(c2ccc(Cl)cc2F)Oc2cccc(C3=CCN(Cc4ncc(-c5nnc(C(F)(F)F)[nH]5)cc4CC4(C#N)CC4)CC3)c2O1` (centres unmarked) [Example 66, 1-((2-((4-(2-(4-chloro-2-fluorophenyl)-2-methylbenzo[d][1,3]dioxol-4-yl)-3,6-dihydropyridin-1(2H)-yl)methyl)-5-(5-(trifluoromethyl)-4H-1,2,4-triazol-3-yl)pyridin-3-yl)methyl)cyclopropane-1-carbonitrile], for which the concentration for a half-maximal effect (EC50) was below 1 nM.

Consider `C[C@]1(c2ccc(Cl)cc2F)Oc2cccc(C3CCN(Cc4ncc(C5CC5C(=O)O)cc4CC4(C#N)CC4)CC3)c2O1` (stereo partly drawn) [Example 67, 2-(6-((4-((S)-2-(4-chloro-2-fluorophenyl)-2-methylbenzo[d][1,3]dioxol-4-yl)piperidin-1-yl)methyl)-5-((1-cyanocyclopropyl)methyl)pyridin-3-yl)cyclopropane-1-carboxylic acid], for which the EC50 fell in the range of 1 to 100 nM.

In the case of `C[C@]1(c2ccc(Cl)cc2F)Oc2cccc(C3CCN(Cc4ncc(-c5nnn[nH]5)cc4CC4(C#N)CC4)CC3)c2O1` [Example 71], the EC50 was below 1 nM.

For the compound `C[C@]1(c2ccc(Cl)cc2F)Oc2cccc(C3CCN(Cc4ncc(-c5noc(=O)[nH]5)cc4CC4(C#N)CC4)CC3)c2O1` [Example 73], the EC50 was below 1 nM.

The compound `C[C@]1(c2ccc(Cl)cn2)Oc2cccc(C3CCN(Cc4ncc(-c5nnn[nH]5)cc4CC4(C#N)CC4)CC3)c2O1` [Example 75] displayed an EC50 below 1 nM.

Consider `C[C@]1(c2ccc(Cl)cn2)Oc2cccc(C3CCN(Cc4ncc(-c5noc(=O)[nH]5)cc4CC4(C#N)CC4)CC3)c2O1` [Example 77], for which the EC50 was below 1 nM.

On to `C[C@]1(c2ccc(Cl)cc2F)Oc2cccc(C3CCN(Cc4ncc(-c5nnc(C(F)(F)F)[nH]5)cc4CC4CCOC4)CC3)c2O1` (some centres unmarked) [Example 79], for which the concentration giving a half-maximal response (EC50) fell in the range of 1 to 100 nM.

For the compound `CC1(c2ccccc2F)Oc2ccc(F)c(C3CCN(Cc4ncc(-c5nnc(C(F)(F)F)[nH]5)cc4CC4(C#N)CC4)CC3)c2O1` (centres unmarked) [Example 80], the EC50 was in the range of 1 to 100 nM.

Regarding `COC(C)Cc1cc(-c2nnc(C(F)(F)F)[nH]2)cnc1CN1CCC(c2cccc3c2O[C@@](C)(c2ccc(Cl)cc2F)O3)CC1` (some centres unmarked) [Example 81], the EC50 fell in the range of 1 to 100 nM.

`N#CC1(Cc2cc(-c3noc(=O)[nH]3)cnc2CN2CCC(c3cccc(OCc4ccc(Cl)cc4F)n3)CC2)CC1` [Example 82] gave an EC50 of 1 to 100 nM.

On to `N#CC1(Cc2cc(-c3nnc(C(F)(F)F)[nH]3)cnc2CN2CCN(c3ccnc(OCc4ccc(Cl)cc4F)n3)CC2)CC1` [Example 83], for which the half-maximal effective concentration (EC50) lay within 1 to 100 nM.

Compound `COCC1(Cc2cc(-c3nnc(C(F)(F)F)[nH]3)cnc2CN2CCC(c3cccc4c3OC(C)(c3ccc(Cl)cn3)O4)CC2)CC1` (centres unmarked) [Example 85] returned an EC50 of 1 to 100 nM.

Take `N#CC1(Cc2cc(-c3nnc(C(F)(F)F)[nH]3)cnc2CN2CCC(Oc3ccnc(Cc4ccc(Cl)cc4F)n3)CC2)CC1` [Example 86]: the 50% effective concentration (EC50) was in the range of 1 to 100 nM.

Consider `CS(=O)(=O)Cc1cc(-c2nnc(C(F)(F)F)[nH]2)cnc1CN1CCC(Oc2cccc(Cc3ccc(Cl)cc3F)n2)CC1` [Example 87], for which the EC50 is 1 to 100 nM.

Compound `COCCc1cc(-c2nnc(C(F)(F)F)[nH]2)cnc1CN1CCC(c2cccc3c2O[C@@](C)(c2ccc(Cl)cn2)O3)CC1` [Example 89] registered an EC50 of 1 to 100 nM.

As to `Cc1cc(-c2nnc(C(F)(F)F)[nH]2)cnc1CN1CCC(c2cccc(OCc3ccc(Cl)cc3F)n2)CC1` [Example 90], the EC50 is 1 to 100 nM.

In turn, `C[C@H]1CN(c2ccnc(OCc3ccc(Cl)cc3F)n2)CCN1Cc1ncc(-c2nnc(C(F)(F)F)[nH]2)cc1CC1(C#N)CC1` [Example 91] had an EC50 of 1 to 100 nM.

`CN1CCC(Cc2cc(-c3nnc(C(F)(F)F)[nH]3)cnc2CN2CCC(c3cccc4c3O[C@@](C)(c3ccc(Cl)cc3F)O4)CC2)C1=O` (some centres unmarked) [Example 92]: the EC50 was 1 to 100 nM.

`C[C@]1(c2ccc(Cl)cc2F)Oc2cccc(C3CCN(Cc4ncc(-c5nnc(C(F)(F)F)[nH]5)cc4C#N)CC3)c2O1` [Example 93] showed a 50% effective concentration (EC50) of 1 to 100 nM.

`Cc1cc(-c2cn(C)nn2)cnc1CN1CCC(c2cccc3c2OC(C)(c2ccc(Cl)cc2F)O3)CC1` (centres unmarked) [Example 94] displayed a half-maximal effective concentration (EC50) of 1 to 100 nM.

`Cc1cc(-c2noc(=O)[nH]2)cnc1CN1CCC(c2cccc(OCc3ccc(Cl)cc3F)n2)CC1` [Example 95]: the concentration for a half-maximal effect (EC50) was above 100 nM.

`Cc1cc(CN2CCC(c3cccc4c3OC(C)(c3ccc(Cl)cc3F)O4)CC2)ncc1-c1nnn[nH]1` (centres unmarked) [Example 96] yielded an EC50 above 100 nM.

For the compound `Cc1nc(-c2cnc(CN3CCC(c4cccc5c4OC(C)(c4ccc(Cl)cc4F)O5)CC3)c(C)c2)no1` (centres unmarked) [Example 97], the EC50 is above 100 nM.

`CC1(c2ccc(Cl)cc2F)Oc2cccc(C3CCN(Cc4ncc(-c5nnn[nH]5)cc4C(F)(F)F)CC3)c2O1` (centres unmarked) [Example 98] had a concentration for a half-maximal effect (EC50) above 100 nM.

Turning to `Cc1cc(-c2cnn(C)c2)cnc1CN1CCC(c2cccc(OCc3ccc(Cl)cc3F)n2)CC1` [Example 99], the concentration giving a half-maximal response (EC50) is above 100 nM.

Regarding `Cc1cc(-c2cnn(C)c(=O)c2)cnc1CN1CCC(c2cccc(OCc3ccc(Cl)cc3F)n2)CC1` [Example 100], the EC50 was above 100 nM.
